No end group written: not given here.
Tests used:
human GIP receptor = target: T1, human GIP receptor (Homo sapiens, UniProt P48546); experiment: Intracellular cyclic AMP production in GIP-receptor transfected CHL fibroblasts; assay type: cell-based
T1 construct: expressed in transfected cells; host or cells: Chinese hamster lung (CHL) fibroblasts, stably transfected
T1 sequence (P48546 22-466): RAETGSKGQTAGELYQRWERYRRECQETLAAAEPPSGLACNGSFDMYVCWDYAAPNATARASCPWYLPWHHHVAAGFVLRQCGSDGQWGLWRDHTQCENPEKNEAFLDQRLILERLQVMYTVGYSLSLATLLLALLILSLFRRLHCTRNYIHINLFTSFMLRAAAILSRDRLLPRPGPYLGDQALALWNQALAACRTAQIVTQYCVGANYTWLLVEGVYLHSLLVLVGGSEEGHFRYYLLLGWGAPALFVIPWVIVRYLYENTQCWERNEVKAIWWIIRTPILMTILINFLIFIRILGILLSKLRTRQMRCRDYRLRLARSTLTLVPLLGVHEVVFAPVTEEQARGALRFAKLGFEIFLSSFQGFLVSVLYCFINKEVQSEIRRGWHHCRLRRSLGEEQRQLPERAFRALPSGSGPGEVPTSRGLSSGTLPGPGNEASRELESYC
Method: In vitro biological activity. […] In brief, CHL cells were seeded into 12-well plates (Nünc, Roskilde, Denmark) at a density of 10^5 cells per well and allowed to grow for 48 hours before being loaded with tritiated adenine (2 μCi; TRK311; Amersham, Buckinghamshire, UK). The cells were then incubated at 37° C. for 6 hours in 1 ml DMEM supplemented with 0.5% (w/v) BSA and subsequently washed twice with HBS buffer (pH 7.4). […] The medium was subsequently removed and the cells lysed with 1 ml of 5% TCA containing 0.1 mmol/l unlabelled cyclic AMP and 0.1 mmol/l unlabelled ATP.

BRIN-BD11 cells = experiment: GIP-stimulated insulin release from BRIN-BD11 cells (antagonism); assay type: cell-based; conditions: 5.6 mM glucose, native GIP 10^-7 M
Method: Tissue culture. […] Cells were maintained in sterile tissue culture flasks (Corning Glass Works, Sunderland, UK) at 37° C. in an atmosphere of 5% CO2 and 95% air using an LEEC incubator (Laboratory Technical Engineering, Nottingham, UK). Acute studies of insulin release. Insulin release from BRIN-BD11 cells was determined using cell monolayers ([…]. et al., 1996, Diabetes 45:1132-1140). Cells were harvested with the aid of trypsin/EDTA (Gibco), seeded into 24-multiwell plates (Nunc, Roskilde, Denmark) at a density of 1.0×10^5 cells per well, and allowed to attach overnight at 37° C.

[1] = test system: obese diabetic ob/ob mice; experiment: Acute in vivo effects of (Pro3)GIP in obese diabetic ob/ob mice; set-up: species or system mouse
Method: Acute in vivo effects of (Pro^3)GIP administration in obese diabetic ob/ob mice. Plasma glucose and insulin responses were evaluated using 8- to 12-week old obese diabetic ob/ob mice following intraperitoneal (i.p.) injection of native GIP, (Pro^3)GIP (25 nmol/kg body weight) or saline (0.9% (w/v) NaCl; control) immediately following the combined injection of GIP (25 nmol/kg body weight) with glucose (18 mmol/kg body weight). All test solutions were administered in a final volume of 8 ml/kg body weight. Blood samples were collected from the cut tip of the tail of conscious mice into chilled fluoride/heparin microcentrifuge tubes (Sarstedt, Numbrecht, Germany) immediately prior to injection and at 15, 30 and 60 minutes post injection. Blood samples were immediately centrifuged using a Beckman microcentrifuge (Beckman Instruments, UK) for 30 seconds at 13000 g and stored at −20° prior to glucose and insulin determinations.
Acute in vivo effects of (Pro^3)GIP on plasma glucose and insulin responses to feeding in obese diabetic ob/ob mice. Plasma glucose and insulin responses were evaluated using 8- to 12-week old ob/ob mice where food was withdrawn for an 18-hour period prior to intraperitoneal injection of saline (0.9% (w/v) NaCl; control) or (Pro^3)GIP (25 nmol/kg body weight). Following injection, the mice were allowed to re-feed for 15 minutes. Blood samples were collected from the cut tip of the tail of conscious mice into chilled fluoride/heparin microcentrifuge tubes (Sarstedt, Numbrecht, Germany) immediately prior to injection and at 15, 30, 60 and 120 minutes post injection. Blood samples were immediately centrifuged using a Beckman microcentrifuge (Beckman Instruments, UK) for 30 seconds at 13000 g and stored at −20° prior to glucose and insulin determinations.
Determination of HbA1c, plasma glucose and insulin concentrations. HbA1c was measured in whole blood by ion-exchange high-performance liquid chromatography using the Menari HA-8140 kit (BIOMEN, Berkshire, UK). Plasma glucose was assayed by an automated glucose oxidase procedure using a Beckman Glucose Analyzer II (Stevens, J. F., 1971, Clinica Chemica Acta 32:199-201) and plasma insulin was determined by RIA (Flatt, P. R. et al., 1981, Diabetologia 20:573-577). Incremental areas under plasma glucose and insulin curves (AUC) were calculated using a computer generated program (CAREA) employing the trapezoidal rule (Burington, R. S., 1973, Handbook of Mathematical Tables and Formulae, New York, McGraw Hill) with baseline subtraction.

[2] = 25 nmol/kg i.p., 15 min re-feeding after 18 h fast

Row | Molecule | EC50 (human GIP receptor) [nM] | inhibition of GIP-stimulated insulin secretion (BRIN-BD11 cells) | antagonism of insulin-releasing action of GIP and improvement of glucose tolerance ([1]; 25 nmol/kg i.p. with GIP 25 nmol/kg and glucose 18 mmol/kg) | glycemic excursion compared with glucose alone ([1]; 25 nmol/kg i.p. with GIP and glucose) | glycemic excursion after feeding [1, 2] | insulin response to feeding [1, 2]
1 | CCCCCCCCCCCCCCCC(=O)NCCCC[C@H](NC(=O)[C@H](Cc1c[nH]c2ccccc12)NC(=O)[C@H](CC(=O)O)NC(=O)[C@H](CC(N)=O)NC(=O)[C@H](CCCCN)NC(=O)[C@H](CCCCN)NC(=O)CNC(=O)[C@H](CCCCN)NC(=O)[C@H](CCC(N)=O)NC(=O)[C@H](C)NC(=O)[C@H](CC(C)C)NC(=O)[C@H](CC(C)C)NC(=O)[C@H](Cc1c[nH]c2ccccc12)NC(=O)[C@H](CC(N)=O)NC(=O)[C@@H](NC(=O)[C@H](Cc1ccccc1)NC(=O)[C@H](CC(=O)O)NC(=O)[C@H](CCC(N)=O)NC(=O)[C@H](CCC(N)=O)NC(=O)[C@H](Cc1c[nH]cn1)NC(=O)[C@@H](NC(=O)[C@H](CCCCN)NC(=O)[C@H](CC(=O)O)NC(=O)[C@H](CCSC)NC(=O)[C@H](C)NC(=O)[C@@H](NC(=O)[C@H](CO)NC(=O)[C@H](Cc1ccc(O)cc1)NC(=O)[C@H](CC(=O)O)NC(=O)[C@H](CO)NC(=O)[C@@H](NC(=O)[C@H](Cc1ccccc1)NC(=O)[C@@H](NC(=O)CNC(=O)[C@H](CCC(=O)O)NC(=O)[C@H](C)NC(=O)[C@H](Cc1ccc(O)cc1)NC(C)=O)[C@@H](C)O)[C@@H](C)CC)[C@@H](C)CC)[C@@H](C)CC)C(C)C)C(=O)N[C@@H](Cc1c[nH]cn1)C(=O)N[C@@H](CC(N)=O)C(=O)N[C@H](C(=O)N[C@H](C(=O)N[C@@H](CCC(N)=O)C(=O)O)[C@@H](C)O)[C@@H](C)CC [N-AcGIP(LysPAL^37)] | 13 |  |  |  |  | 
2 | YAPGTFISDYSIAMDKIHQQDFVNWLLAQKGKKNDWKHNITQ [(Pro^3)GIP] |  | inhibited in dose-dependent fashion | completely antagonised | worse than when glucose was administered alone | worsened | decreased

Source: patent US7875587B2, “Peptide analogues of GIP for treatment of diabetes, insulin resistance and obesity” (UUTECH Limited, priority 2004, dated 2011)
